Like-named read-outs stand apart in the source and are kept apart here.
Tests used:
[1] = system: HT-29; experiment: Cytotoxicity by SRB assay in HT-29 cells
Procedure: (§2) Cancer cell lines were obtained from ATCC unless otherwise noted. HT-29 and HCT-116 cells were cultured in Dulbecco's Modified Eagle Medium (DMEM, Thermo Fisher Scientific) with 10% fetal bovine serum (FBS, Thermo Fisher Scientific) and 1% antibiotic-antimycotic (Thermo Fisher Scientific).
(§3) Briefly, CRC cells were seeded at a density of 5×10^3 cells/well in 96-well microtiter plates (100 μL/well), separated into two groups with or without GSH. After incubation for 24 hours, the culture medium was replaced by fresh medium (100 μL). […] After incubation, 10% cold trichloroacetic acid was gently added to each well and incubated at 4° C. for 1 h. The medium was removed, carefully washed with water, and dried at room temperature. […] The optical density (O.D.) was measured at 510 nm with Multi-Mode Microplate Reader (SpectraMax Paradigm, Beckman Coulter, U.S.). The fraction of cell survival was calculated as follows. Survival fraction=(OD treated−blank)/(OD control−blank). […] Each experiment was repeated three times.

[2] = system: HCT-116; experiment: Cytotoxicity by SRB assay in HCT-116 cells; format: cell-based, human
Procedure: (§1) The fraction of cell survival was calculated as follows. Survival fraction=(OD treated−blank)/(OD control−blank). […] Each experiment was repeated three times.

[3] = system: GLUT-1; experiment: 2-NBDG uptake assay in COS-7 cells that overexpress GLUT-1; format: cell-based; conditions: 50 μM and 100 μM
Procedure: COS-7 cells were seeded in 96-well culture plates and grown in low-glucose Dulbecco's Modified Eagle's medium supplemented with 10% fetal bovine serum and 2 mM L-glutamine for 24 h. After washing with Krebs Ringer bicarbonate buffer (KRB) (10 mM HEPES, 129 mM NaCl, 4.7 mM KCl, 2 mM CaCl2) and 1.2 mM MgSO4, 1.2 mM KH2PO4, 5 mM NaHCO3, pH 7.4), cells were incubated with the compounds to be tested in KRB containing 2-NBDG (200 μM) for 90 min at 37° C. in a 5% CO2 atmosphere, and then washed twice with KRB and lysed with lysis buffer (1% Nonidet P-40, 1% sodium deoxycholate, 40 mM KCl, and 20 mM Tris, pH 7.4). Finally, the lysates were transferred to black 96-well plates and fluorescence intensity was detected with a Multi-Mode Microplate Reader (SpectraMax Paradigm, Beckman Coulter, USA) using an excitation wavelength of 475 nm and an emission wavelength of 550 nm.

[4] = system: CRC cell lines HCT-116 and HT-29; experiment: Cytotoxicity against CRC cell lines, summary over both lines (SRB assay); format: cell-based, human; conditions: HCT-116 and HT-29, with or without GSH
Procedure: as §1

[5] = system: orthotopic CRC mice model; experiment: Orthotopic AOM/DSS-induced CRC mice model, tumor area; format: in vivo, BALB/c mice; conditions: SN-38 series; i.v. once every two days for two weeks; 40 mg/kg vs irinotecan 40 mg/kg
Procedure: Azoxymethane (AOM)-induced murine CRC model was applied to model human CRC. BALB/c mice (6 weeks of age, male) were intraperitoneally (i.p.) injected once every two weeks with AOM (10 mg/kg body weight) or the PBS vehicle. Seven days after each AOM injection, 2% dextran sulfate sodium (DSS) was given in the drinking water for four days, followed by 3 days of regular water. This cycle was repeated three times. The mice were randomly divided into eight groups (n=5), on day 60 after the first AOM treatment. […] Tumor volumes and body weights were recorded at sacrifice. The tumors were counted under a dissecting microscope, and the area covered by tumors was measured by imaging software (AxioVision LE 4.8.2.0).

[6] = system: HT-29
Procedure: as §2, §3

[7] = Homo sapiens, HT-29, 48 h, read-out: IC50 HT-29

| SMILES | IC50 [1, 7] | IC50 ([1]; Homo sapiens, HT-29, 48 h, read-out: IC50 HT-29 5 mM GSH) | IC50 ([1]; Homo sapiens, HT-29, 48 h, read-out: IC50 HT-29 w/o GSH) | IC50 ([1]; read-out: IC50 HT-29 5 mM GSH, 48 h, prepared in DMA, 5 mM GSH) | IC50 ([1]; read-out: IC50 HT-29 w/o GSH, 48 h, prepared in DMA, w/o GSH) | IC50 ([2]; Homo sapiens, HCT-116, read-out: IC50 HCT-116 5 mM GSH, 48 h, 5 mM GSH) | IC50 ([2]; Homo sapiens, HCT-116, read-out: IC50 HCT-116 5 mM GSH, 72 h, prepared in DMA, 5 mM GSH) | IC50 ([2]; Homo sapiens, HCT-116, 48 h, prepared in DMSO, read-out: IC50 HCT-116) | IC50 ([2]; Homo sapiens, HCT-116, 48 h, w/o GSH, read-out: IC50 HCT-116 w/o GSH) | IC50 ([2]; Homo sapiens, HCT-116, 72 h, prepared in DMA, w/o GSH, read-out: IC50 HCT-116 w/o GSH) | inhibition of GLUT-1 activity (2-NBDG uptake), in words [3] | cytotoxicity against CRC cell lines, in words [4] | anti-tumor efficacy (tumor area), in words [5] | cytotoxicity in HT-29 cell line, in words [6] | IC50 ([2]; 48 h, prepared in DMSO, read-out: IC50 HCT-116) | IC50 ([2]; Homo sapiens, HCT-116, 48 h, 48 h, prepared in DMSO, read-out: IC50 HCT-116) |
| --- | --- | --- | --- | --- | --- | --- | --- | --- | --- | --- | --- | --- | --- | --- | --- | --- |
| O=C(CCc1ccc(O)cc1)c1c(O)cc(OCCOCCOCCS)cc1O[C@@H]1O[C@H](CO)[C@@H](O)C(O)[C@H]1O (stereo partly drawn) [Compound 16, 1-(2-Hydroxy-4-(2-(2-(2-mercaptoethoxy)ethoxy)ethoxy)-6-(((2S,3R,5S,6R)-3,4,5-trihydroxy-6-(hydroxymethyl)tetrahydro-2H-pyran-2-yl)oxy)phenyl)-3-(4-hydroxyphenyl)propan-1-one] | > 100 µM | > 100 µM | > 100 µM | > 100 µM | > 100 µM | > 100 µM | > 100 µM | > 100 µM | > 100 µM | > 100 µM | not able to inhibit GLUT-1 | did not exhibit any inhibitory activity | – | – | – | – |
| CCc1c2c(nc3ccc(OCc4ccc(NC(=O)[C@H](CCCNC(N)=O)NC(=O)[C@@H](NC(=O)CCCCN5C(=O)CC(SCCOCCOCCOc6cc(O)c(C(=O)CCc7ccc(O)cc7)c(O[C@@H]7O[C@H](CO)[C@@H](O)[C@H](O)[C@H]7O)c6)C5=O)C(C)C)cc4)cc13)-c1cc3c(c(=O)n1C2)COC(=O)[C@]3(O)CC (some centres unmarked) [Compound 37] | > 100 µM | – | – | – | – | – | – | – | – | – | – | – | ameliorated the tumor area | less sensitive | 3.25 ± 0.42 µM | 3 to 7 µM |

— US12458702B2 (NATIONAL TAIWAN UNIVERSITY, priority 2022, dated 2025)
